Converted amounts (≈) assume the structure as drawn. “Also recorded” adds a separate entry of the source. Structures can show the parent of a compound that is named as a salt. Where two headings read alike, the source gives them in different places.
Tests used:
[1] = test system: MDA-MB-231 (ER negative breast carcinoma cell line); test: CellTiter-Glo antiproliferative activity, MDA-MB-231 cell line; type: cell-based, human; conditions: 72 h exposure; for IC50: Homo sapiens, MDA-MB-231
Source text: (§1) Numerous substituted THIQs were systematically synthesized employing molecular design and structure activity relationship studies (Suresh et al., (2014) Lett. Drug Design & Discov. 11: 428-436; Gangapuram et al., (2014) J. Cancer Sci. Ther. 6: 161-169). The compounds' cytotoxic effects on MCF-7 (estrogen receptor positive breast cancer) cell lines, MDA-MB-231 (estrogen receptor negative breast cancer) cell lines and Ishikawa cell lines using CellTiter-Glo (CTG) luminescent cell viability essay were studied. The tests were done on different concentrations of the compounds ranging from 0.01 to 100,000 nM on 5000 MCF-7 cells/well, on 5000 MDA-MB-231 cells/well and on 5000 Ishikawa cells/well. Drug exposed cells were incubated at 37° C. for three days followed by CTG assay. Then IC50 values were generated from Graph Pad Prism 4.
(§2) Chemistry: Several substituted tetrahydroisoquinolines 2d-2m, 3h, 3k, 3l, and 4a-4f were prepared according to three different procedures as shown in Schemes 1, 2 and 3 (FIGS. 2-4). […] The aminating agent 10 was prepared using a reported procedure (Tamura et al., (1972) J. Org. Chem. 40: 4133-4135). The amino salts of ring substituted 2-aminoisoquinolinium mesitylenesulfonates of general structure 11 used in the present study were prepared by the reaction of substituted isoquinolines and the aminating agent 10 as previously reported (Gangapuram et al., (2014) J. Cancer Sci. Ther. 6: 161-169). […] The aminating agent 13 was prepared using a reported procedure (Legault & Charette (2003) J. Org. Chem. 68: 7119-7122). The amino salts of ring substituted 2-aminoisoquinolinium compounds of general structure 14 were obtained with the reaction of the substituted isoquinolines and the aminating agent 13 in CH3CN heated at 50° C. for 24 hours. Without further purification, the salts were used to prepare the N-ylides by reaction with substituted acyl/sulfonyl chlorides. […] N-Oxidation of commercially available ring substituted THIQs followed by the reduction of the NO group using standard zinc/acetic acid led to the synthesis of N-amino THIQs.
(§3) The antiproliferative activities of substituted tetrahydroisoquinolines 2a-2m, 3a-3l and 4a-4f were evaluated according to the procedure reported previously (Crouch et al., (1993) J. Immunol. Methods 160: 81-88).
(§4) Human MCF-7 and MDA-MB-231 breast cancer cell lines were purchased from the NCI. The human Ishikawa endometrial cancer cell line was purchased from Sigma Aldrich. All three cell lines were cultured in phenol red-free RPMI-1640 (Hyclone) (500 mL) supplemented with L-glutamine-dipeptide (Hyclone) (5 mL), and 10% fetal bovine serum (Atlanta Biologicals) (50 mL).
(§5) The cell lines were cultured and treated with compounds under study including the standard TAM ranging from 0.01 nM to 100,000 nM concentration in the presence of 10 nM estradiol using the previous reported method (Suresh et al., (2014) Lett. Drug Des. Discov. 11: 428-436).

[2] = test system: Ishikawa (endometrial) cancer cell line; test: CellTiter-Glo antiproliferative activity, Ishikawa cell line; type: cell-based, human; conditions: 72 h exposure; for IC50: Homo sapiens, Ishikawa
Source text: as §1, with “4. […]” for “4.”
as §3, §4, §5
(§6) The amount of ATP is determined using a system based on luciferase and D-luciferin resulting in light generation.

[3] = test system: MCF-7 (ER positive breast cancer cell line); test: CellTiter-Glo antiproliferative activity, MCF-7 cell line; type: cell-based, human; conditions: for IC50: Homo sapiens, MCF7; for antiproliferative activity against MCF-7 cell line in words: based on IC50 value
Source text: as §1, §2, §3, §4, §5, §6

[4] = test system: MCF-7, MDA-MB-231, and Ishikawa cell lines; test: Antiproliferative activity, summary statements over the three cell lines; type: cell-based, human; conditions: MCF-7, MDA-MB-231 and Ishikawa cell lines together
Source text: as §1, §2, §3, §4, §5

[5] = Table 1, in the presence of 10 nM estradiol
[6] = Table 1, in the presence of 10 nM estradiol, read-out: IC50 Ishikawa
[7] = Table 1, 72 h exposure, in the presence of 10 nM estradiol, read-out: IC50 MCF-7
[8] = Table 1, 72 h exposure, in the presence of 10 nM estradiol
[9] = Table 2, estradiol added, read-out: IC50 Ishikawa
[10] = Table 2, 72 h exposure, estradiol added, read-out: IC50 MCF-7
[11] = in the presence of 10 nM estradiol, read-out: IC50 against Ishikawa cell line
[12] = in the presence of 10 nM estradiol

| IC50 [1, 5] | IC50 [2, 6] | melting point | IC50 [3, 7] | IC50 MDA-MB-231 [1, 5] | IC50 Ishikawa [2, 5] | IC50 MCF-7 [3, 8] | Structure (SMILES) | also measured |
| --- | --- | --- | --- | --- | --- | --- | --- | --- |
|  |  |  |  | >33.84 µg/mL | >33.84 µg/mL | >33.84 µg/mL | COc1cccc2c1CCN(NC(=O)c1ccc(C(C)(C)C)cc1)C2 [Compound 3a, 4-(tert-butyl)-N-(5-Methoxy-3,4-dihydroisoquinolin-2(1H)-yl) benzamide] |  |
| > 30.5 µg/mL | > 30.5 µg/mL | 162 to 167 °C | 26.4 µg/mL |  |  |  | CCc1ccccc1C(=O)NN1CCc2ccc(C#N)cc2C1 [Compound 4a, N-(7-Cyano-3,4-dihydroisoquinolin-2(1H)-yl)-2-ethylbenzamide] |  |
| > 34.1 µg/mL | > 34.1 µg/mL | 224 to 225 °C | > 34.1 µg/mL |  |  |  | CCc1ccc(C(=O)NN2CCc3cc(OC)c(OC)cc3C2)cc1 [Compound 4b, N-(6,7-Dimethoxy-3,4-dihydroisoquinolin-2(1H)-yl)-4-ethylbenzamide] |  |
|  |  |  |  | 15.61 µg/mL | 9.93 µg/mL | 18.61 µg/mL | CCc1ccc(C(=O)NN2CCc3c(O)cccc3C2)cc1 [Compound 3f, 4-Ethyl-N-(5-hydroxy-3,4-dihydroisoquinolin-2(1H)-yl) benzamide] |  |
| > 32.4 µg/mL | > 32.4 µg/mL | 251 to 253 °C | > 32.4 µg/mL |  |  |  | CCc1ccc(C(=O)NN2CCc3cc(C(=O)O)ccc3C2)cc1 [Compound 3k, 2-(4-Ethylbenzamido)-1,2,3,4-tetrahydroisoquinoline-6-carboxylic acid] |  |
|  |  |  |  | 10.25 µg/mL | 10.96 µg/mL | 7.92 µg/mL | CC(C)(C)c1ccc(C(=O)NN2CCc3c(O)cccc3C2)cc1 [Compound 3b, 4-(tert-butyl)-N-(5-Hydroxy-3,4-dihydroisoquinolin-2(1H)-yl) benzamide] |  |
| 1.76 µg/mL | 0.9 µg/mL |  | 1.28 µg/mL |  |  |  | CCc1ccc(C(=O)NN2CCc3ccc(C#N)cc3C2)cc1 [Compound 4d, N-(7-Cyano-3,4-dihydroisoquinolin-2(1H)-yl)-4-ethylbenzamide] | IC50 [2, 11]: < 7.87 µg/mL; IC50 ([3]; 72 h exposure, in the presence of 10 nM estradiol, read-out: IC50 against MCF-7 cell line): 1.28 µg/mL; antiproliferative activity against MCF-7 cell line in words [3]: moderate activity |
|  |  |  |  | >41.45 µg/mL | >41.45 µg/mL | >41.45 µg/mL | CC(C)(C)c1ccc(C(=O)NN2CCc3c(cccc3OCc3ccccc3)C2)cc1 [Compound 3e, N-(5-(Benzyloxy)-3,4-dihydroisoquinolin-2(1H)-yl)-4-(tertbutyl) benzamide] |  |
| 16.1 µg/mL | 8.64 µg/mL |  | 15.2 µg/mL |  |  |  | CCc1ccc(C(=O)NN2CCc3cc(C(=O)OC)ccc3C2)cc1 [Compound 3h, methyl-2-(4-ethylbenzamido)-1,2,3,4-tetrahydroisoquinoline-6-carboxylate] |  |
| 3.74 µg/mL | 0.98 µg/mL | 205 to 206 °C | 2.49 µg/mL |  |  |  | CCc1ccc(C(=O)NN2CCc3cc(Cl)ccc3C2)cc1 [Compound 4e, N-(6-Chloro-3,4-dihydroisoquinolin-2(1H)-yl)-4-ethylbenzamide] | IC50 [2, 11]: < 7.87 µg/mL |

The next lines start with the compound.

| Structure (SMILES) | IC50 [1, 5] | IC50 [2, 6] | melting point | IC50 [3, 7] | IC50 MDA-MB-231 [1, 5] | IC50 Ishikawa [2, 5] | IC50 MCF-7 [3, 8] | also measured |
| --- | --- | --- | --- | --- | --- | --- | --- | --- |
| CCc1ccc(C(=O)NN2CCc3cccc(N)c3C2)cc1 [Compound 2k, N-(8-amino-3,4-dihydroisoquinolin-2(1H)-yl)-4-ethylbenzamide] | 16.8 µg/mL | 0.6 µg/mL | 223.5 to 224.8 °C | 2.23 µg/mL |  |  |  |  |
| CCc1ccc(C(=O)NN2CCc3ccccc3C2c2ccco2)cc1 (stereo not drawn) [Redda-EVK-I-135, 4-Ethyl-N-(1-(furan-2-yl)-3,4-dihydroisoquinolin-2(1H)-yl)benzamide] |  |  |  |  |  |  |  | IC50 ([1]; Table 2, estradiol added): 3.88 µg/mL (≈ 11.2 µM); IC50 [2, 9]: 1.71 µg/mL (≈ 4.94 µM); IC50 [3, 10]: 2.39 µg/mL (≈ 6.9 µM) |
| CCc1ccc(C(=O)NN2CCc3ccc(OS(N)(=O)=O)cc3C2)cc1 [Redda-GM-4-171, 2-(4-Ethylbenzamido)-1,2,3,4-tetrahydroisoquinolin-7-yl-sulfamate] |  |  |  |  |  |  |  | IC50 ([1]; Table 2, estradiol added): 2.53 µg/mL (≈ 6.74 µM); IC50 [2, 9]: 0.12 µg/mL (≈ 0.32 µM); IC50 [3, 10]: 2.14 µg/mL (≈ 5.7 µM) |
| O=C(c1ccc(OCCN2CCCCC2)cc1)c1c(-c2ccc(O)cc2)sc2cc(O)ccc12 [Raloxifene-Hydrochloride, reference compound] | 11.2 µg/mL | 10.5 µg/mL |  | 0.98 µg/mL |  |  |  |  |
| CCc1ccccc1C(=O)NN1CCc2ccc(O)cc2C1 [Compound 2g, 2-Ethyl-N-(7-hydroxy-3,4-dihydroisoquinolin-2(1H)-yl) benzamide] |  |  |  |  | >29.64 µg/mL | >29.64 µg/mL | >29.64 µg/mL |  |
| CCc1ccc(C(=O)NN2CCc3cc(O)ccc3C2)cc1 [Compound 2h, 4-Ethyl-N-(6-hydroxy-3,4-dihydroisoquinolin-2(1H)-yl) benzamide] |  |  |  |  | >29.64 µg/mL | 22.38 µg/mL | >29.64 µg/mL |  |
| CCc1ccc(C(=O)NN2CCc3ccc(Cl)cc3C2)cc1 [Redda-EVK-I-132, N-(7-Chloro-3,4-dihydroisoquinolin-2(1H)-yl)-4-ethylbenzamide] |  |  |  |  |  |  |  | IC50 ([1]; Table 2, estradiol added): 0.826 µg/mL (≈ 2.62 µM); IC50 [2, 9]: 0.318 µg/mL (≈ 1.01 µM); IC50 [3, 10]: 0.678 µg/mL (≈ 2.15 µM) |
| Nc1ccc(C(=O)NN2CCc3ccc(Br)cc3C2)cc1 [Compound 2l, 4-Amino-N-(7-bromo-3,4-dihydroisoquinolin-2(1H)-yl) benzamide] |  |  |  |  | 9.86 µg/mL | 1.09 µg/mL | 2.80 µg/mL |  |
| CCc1ccc(C(=O)NN2CCc3cccc(O)c3C2)cc1 [Compound 2i, 4-Ethyl-N-(8-hydroxy-3,4-dihydroisoquinolin-2(1H)-yl) benzamide] |  |  |  |  |  |  |  | IC50 against MDA-MB-231 cell line [1, 12]: 1.36 µg/mL; antiproliferative activity in words [4]: active; IC50 against Ishikawa cell line [2, 12]: 0.09 µg/mL; IC50 against MCF-7 cell line ([3]; 72 h exposure, in the presence of 10 nM estradiol): 0.61 µg/mL; selectivity towards ER(+) MCF-7 compared to ER(−) MDA-MB-231 cell lines ([3]; MCF-7 versus MDA-MB-231 IC50): significant selectivity; also recorded: reasonable selectivity; antiproliferative activity against MCF-7 cell line in words [3]: very active |
| COc1ccccc1C(=O)NN1CCc2ccc(O)cc2C1 [Compound 2f, N-(7-hydroxy-3,4-dihydroisoquinolin-2(1H)-yl)-2-methoxybenzamide] | > 29.8 µg/mL | > 29.8 µg/mL | 197.3 to 199.4 °C | > 29.8 µg/mL |  |  |  |  |
| COc1ccc(C(=O)NN2CCc3ccc(O)cc3C2)cc1 [Compound 2d, N-(7-hydroxy-3,4-dihydroisoquinolin-2(1H)-yl)-4-methoxybenzamide] | 25.2 µg/mL | 0.99 µg/mL | 192.5 to 194.3 °C | > 29.8 µg/mL |  |  |  |  |
| COc1cccc(C(=O)NN2CCc3ccc(O)cc3C2)c1 [Compound 2e, N-(7-hydroxy-3,4-dihydroisoquinolin-2(1H)-yl)-3-methoxybenzamide] | 1.71 µg/mL | 0.31 µg/mL | 190.5 to 192.3 °C | 1.86 µg/mL |  |  |  |  |
